From US20250206789A1, “ZINC FINGER DEGRON SEQUENCES” (STICHTING HET NEDERLANDS KANKER INSTITUUT-ANTONI VAN …, priority 2022, published 2025)

System: Jurkat cells
Experiment: SynFinger library screen: CD69 expression of CRASH-IT (Zap70-PD1-degron) transduced Jurkat cells with or without lenalidomide, enrichment index from NGS reads
Assay type: cell-based
Parameters: key to EI / EI index (enrichment index): enrichment index; low EI = SynFinger with desired properties
Conditions: for EI index (enrichment index): Table 6, dual substitutions in first hybrid zinc finger domain, Jurkat, 50 nM lenalidomide vs mock, CD69-HI/CD69-LO, low EI = desired
Source text: […] Jurkat cells were transduced with the SynFinger library (SynFinger containing CRASH-IT switches) at a 12.8% transduction efficiency and sorted for high EGFP expression to enrich transduced cells. For quality control of the SynFinger transduced Jurkat cells, SynFinger sequences were amplified and analyzed by NGS. 10 randomly selected SynFinger encoding DNA sequences or DNA sequences encoding the same SynFinger amino acid sequences but contain 2 nucleotide mismatches due to alternative codon usage were used to assess ability to distinguish true SynFinger sequences from noise in the NGS data. 10/10 SynFinger encoding full-nucleotide sequence match sequences were observed within NGS data whereas the 2 nucleotide mismatch containing sequences were not detected.
Jurkat cells expressing the SynFinger library were treated with 50 nM lenalidomide (a suboptimal dose that activates only ˜50% of cells expressing a CRASH-IT switch containing the parental double hybrid degron in Jurkat cells, as compared to a maximally effective 1000 nM lenalidomide dose) or were mock treated for 24 hours, and subsequently activated with anti-CD3/anti-CD28 antibodies in the presence or absence of 50 nM lenalidomide for 5 hours. Afterwards, cells were stained with IR dye (1:400) and anti-CD69-PE (1:200). Cells were sorted for live (IR dye negative), EGFP high end CD69 high (top 5%) or CD69 low (bottom 5%) expression using Aria Fusion cytometers.
Subsequently, cells were washed with PBS, and cell pellets were frozen at −20° C. until DNA extraction. Genomic DNA was isolated using the DNeasy Blood & Tissue Kit (Qiagen) according to the manufacturer's instructions, using 5×10^6 cells per column. DNA was eluted in 22 μl RNAse free water. Deep sequencing adapters and indexes were added to SynFinger encoding DNA sequences using PCR amplification. Briefly, 3 μg genomic DNA (20 μl), indexed forward and reverse primers (10 μM, 2.5 μl each) and 25 μl NEBNext® High-Fidelity 2×PCR Master Mix were added to the PCR reaction. An optimized PCR reaction (98° C. for 30 s, (98° C. for 10 s, 56° C. for 10 s, 72° C. for 5 s)×25 cycles, 72° C. for 3 min was performed using Eppendorf PCR cyclers.
Indexed PCR products were run on agarose gel, relative DNA concentrations were estimated by measuring band intensity, and 12 indexed PCR reaction products were mixed per MiSeq chip. To increase sequence diversity, samples were mixed with 25% PhiX DNA. In total, 2 MiSeq chips were used (100 bp, single read). To distinguish genuine SynFinger sequences from sequencing errors, results were filtered using a reference list of actual sequences used in SynFinger library design (100% codon match). Sequences with a very low number of reads (sum of all samples below 500 reads) were excluded from analysis.
To identify SynFingers that improve sensitivity of CRASH-IT switches towards lenalidomide while preserving or improving stringency of switch mediated control of T cell activation in the absence of lenalidomide, an enrichment index (EI) value was calculated for each sequence as described below, and SynFingers were ranked according to their EI, with a low EI indicating a SynFinger with desired properties.
CD69-HI and […] read counts from top 100 SynFingers were compared with read counts from the parental double hybrid degron using a two-sided Fisher's exact test to determine enrichment of CD69-HI cells in the presence of lenalidomide and enrichment of CD69-LO cells in the absence of lenalidomide.
To further improve the sensitivity of double hybrid degron towards IMiDs, we performed a high throughput screen using a library of ˜50,200 CRASH-IT variants that encode either single or double amino acid substitutions at the indicated positions of the first hybrid zinc finger sequence, thereby changing 18 amino acids of this zinc finger into any amino acid except cysteine (FIG. 3). […]

51 (LQCEICGFTCRQKKNLLRHISLH) [compound 51]
EI index (enrichment index): 0.02309

68 (HQCEICGFTCRQKGRLLRHIKLH) [compound 68]
EI index (enrichment index): 0.03141

95 (LQCLICGFTCRQKGNLLRHIRLH) [compound 95]
EI index (enrichment index): 0.04285

10 (LQCWICGFTCRQKGNLLRHIYLH) [compound 10]
EI index (enrichment index): 0.00695

25 (LQCKICGFTCRQMGNLLRHIKLH) [compound 25]
EI index (enrichment index): 0.01383

57 (LQCEICGFTCRQKMNLVRHIKLH) [compound 57]
EI index (enrichment index): 0.02583

8 (LQCEICGFTCRQLGNLLWHIKLH) [compound 8]
EI index (enrichment index): 0.006187

49 (LQCEICGFTCRRKGSLLRHIKLH) [compound 49]
EI index (enrichment index): 0.02268

70 (LQCWICGFTCRQKMNLLRHIKLH) [compound 70]
EI index (enrichment index): 0.03192

36 (YQCVICGFTCRQKGNLLRHIKLH) [compound 36]
EI index (enrichment index): 0.01769

3 (LQCEICGFTCRRKGNLMRHIKLH) [compound 3]
EI index (enrichment index): 0.003725

34 (LQCEICGFTCRQKYNLLRHISLH) [compound 34]
EI index (enrichment index): 0.01723

55 (LQCEICGFTCRQKFKLLRHIKLH) [compound 55]
EI index (enrichment index): 0.0247

14 (LQCEICGFTCRQKGNLIRHILLH) [compound 14]
EI index (enrichment index): 0.009984

79 (LQCEICGFTCRKKGNLLRHIILH) [compound 79]
EI index (enrichment index): 0.03569

28 (LQCEICGFTCRRKGNLLRHIKHH) [compound 28]
EI index (enrichment index): 0.01589

44 (LQCEICGFTCRQKANLKRHIKLH) [compound 44]
EI index (enrichment index): 0.02064

92 (LQCEICGFTCRQLRNLLRHIKLH) [compound 92]
EI index (enrichment index): 0.04129

13 (LQCEICGFTCRQKGNMLRHIRLH) [compound 13]
EI index (enrichment index): 0.008761

69 (LQCEICGFTCRQKGNLDRHIKRH) [compound 69]
EI index (enrichment index): 0.03188

15 (LQCLICGFTCRRKGNLLRHIKLH) [compound 15]
EI index (enrichment index): 0.01014

93 (LQCEICGFTSRQKGRLLRHIKLH) [compound 93]
EI index (enrichment index): 0.04175

74 (WQCEICGFTCRQKGNLLRHIALH) [compound 74]
EI index (enrichment index): 0.03362

86 (LQCVICGFQCRQKGNLLRHIKLH) [compound 86]
EI index (enrichment index): 0.0393

YQCEICGFTCRQKGNLLRHIKLH [SEQ ID NO: 108, first hybrid zinc finger domain with only one mutation, substitution L1Y]
EI value, times higher as compared to SEQ ID. NO 36 (single mutation vs dual substitution L1Y/E4V, higher EI = less sensitive to IMiD): 10-15 times
EI value, times higher as compared to SEQ ID. NO 100 (single mutation vs dual substitution, higher EI = less sensitive to IMiD): at least 5 times

12 (IQCEACGFTCRQKGNLLRHIKLH) [compound 12]
EI index (enrichment index): 0.008564

97 (LQCEICGFTCRKKVNLLRHIKLH) [compound 97]
EI index (enrichment index): 0.04294

99 (LQCEICGFTCRQKGNLLRHINNH) [compound 99]
EI index (enrichment index): 0.04339

38 (LQCEICGYTCRKKGNLLRHIKLH) [compound 38]
EI index (enrichment index): 0.01794

43 (FQCEICGFTCRQKGRLLRHIKLH) [compound 43]
EI index (enrichment index): 0.01977

96 (LQCEICGFTCRQKLNLLRHIKRH) [compound 96]
EI index (enrichment index): 0.04285

85 (WQCMICGFTCRQKGNLLRHIKLH) [compound 85]
EI index (enrichment index): 0.03924

58 (LQCRICGFTCRQKGNMLRHIKLH) [compound 58]
EI index (enrichment index): 0.02584

35 (LQCEICGFTARRKGNLLRHIKLH) [compound 35]
EI index (enrichment index): 0.01754

7 (LQCEICGFTCRQKNNLLRHIKRH) [compound 7]
EI index (enrichment index): 0.004969

87 (LQCEICGFTCRQKQRLLRHIKLH) [compound 87]
EI index (enrichment index): 0.0394

39 (LQCEICGFTCRQKGRLLRHIKQH) [compound 39]
EI index (enrichment index): 0.01901

2 (LQCEICGFTCRRTGNLLRHIKLH) [compound 2]
EI index (enrichment index): 0.002912

60 (LQCEICGFTCRQWGNYLRHIKLH) [compound 60]
EI index (enrichment index): 0.02739

1 (LQCRICGFTCRLKGNLLRHIKLH) [compound 1]
EI index (enrichment index): 0

54 (LQCEICGFTCRQKGNLLVHIALH) [compound 54]
EI index (enrichment index): 0.02408

22 (LQCKICGFTSRQKGNLLRHIKLH) [compound 22]
EI index (enrichment index): 0.01311

63 (LQCWICGFTCRRKGNLLRHIKLH) [compound 63]
EI index (enrichment index): 0.02829

56 (LQCKICGFTCRHKGNLLRHIKLH) [compound 56]
EI index (enrichment index): 0.02543

64 (LQCEICGFTCRQKGNLHLHIKLH) [compound 64]
EI index (enrichment index): 0.02947

61 (WQCEICGFTCRQYGNLLRHIKLH) [compound 61]
EI index (enrichment index): 0.0276

83 (LQCWICGFTCRQKGNMLRHIKLH) [compound 83]
EI index (enrichment index): 0.03839

53 (LQCEICGFTCRQKGNLLRHYKTH) [compound 53]
EI index (enrichment index): 0.02363

45 (LQCIICGFTCRQKGNLWRHIKLH) [compound 45]
EI index (enrichment index): 0.0209

30 (LQCMICGFTFRQKGNLLRHIKLH) [compound 30]
EI index (enrichment index): 0.01673

41 (LQCEVCGFTCRKKGNLLRHIKLH) [compound 41]
EI index (enrichment index): 0.01944

67 (LQCEICGFTCRQQLNLLRHIKLH) [compound 67]
EI index (enrichment index): 0.0303

89 (MQCEICGFTCRQKSNLLRHIKLH) [compound 89]
EI index (enrichment index): 0.04065

48 (LQCEICGFTCRKKGNLLRHKKLH) [compound 48]
EI index (enrichment index): 0.02219

50 (LQCEICGFTCRNKKNLLRHIKLH) [compound 50]
EI index (enrichment index): 0.02307

52 (FQCEICGFTCRQKRNLLRHIKLH) [compound 52]
EI index (enrichment index): 0.0231

72 (YQCEICGFTCRQKGNLLRHIILH) [compound 72]
EI index (enrichment index): 0.03275

91 (LQCWICGFTCRQKGNLWRHIKLH) [compound 91]
EI index (enrichment index): 0.04125

32 (LQCEICGFTCRQEKNLLRHIKLH) [compound 32]
EI index (enrichment index): 0.01693

78 (LQCNICGFTCRQLGNLLRHIKLH) [compound 78]
EI index (enrichment index): 0.03544

81 (LQCEICGFTCRQDGRLLRHIKLH) [compound 81]
EI index (enrichment index): 0.03726

42 (LQCEICGFTCRRKGNLLRHRKLH) [compound 42]
EI index (enrichment index): 0.01965

46 (LQCEICGFTCRQKGNLYRHYKLH) [compound 46]
EI index (enrichment index): 0.021

6 (LQCEICGFTCRQKNNLLRHIALH) [compound 6]
EI index (enrichment index): 0.004719

9 (LQCEICGFTCRRVGNLLRHIKLH) [compound 9]
EI index (enrichment index): 0.006877

62 (LQCEICGFTCRQPGNLLRHIKRH) [compound 62]
EI index (enrichment index): 0.02767

66 (LQCVICGFTCRQKGNLVRHIKLH) [compound 66]
EI index (enrichment index): 0.02989

100 (LQCEICGFTCRQKGRLLRHIHLH) [compound 100]
EI index (enrichment index): 0.04461

94 (MQCVICGFTCRQKGNLLRHIKLH) [compound 94]
EI index (enrichment index): 0.04229

73 (LQCHICGFTSRQKGNLLRHIKLH) [compound 73]
EI index (enrichment index): 0.03303

75 (LQCHICGFTCRQHGNLLRHIKLH) [compound 75]
EI index (enrichment index): 0.03442

29 (LQCEICGFTCRQVGWLLRHIKLH) [compound 29]
EI index (enrichment index): 0.01609
